Measured values taken from PubChem BioAssay (NCI).
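Assay format: 96-well plates, 48-hour exposure. TGI denotes the concentration required for complete inhibition of growth.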

Assays:
Assay in all cases: growth of human tumour cells (NCI), 48 h
[1] = system: SNB-75 CNS
[2] = system: PC-3 prostate
[3] = system: HCC-2998 colon
[4] = system: K-562 leukemia
[5] = system: BT-549 breast
[6] = system: DU-145 prostate
[7] = system: U251 CNS
[8] = system: SNB-19 CNS
[9] = system: IGROV1 ovarian
[10] = system: SF-539 CNS
[11] = system: SK-MEL-28 melanoma
[12] = system: SK-MEL-5 melanoma
[13] = system: KM12 colon
[14] = system: SW-620 colon
[15] = system: 786-0 renal
[16] = system: OVCAR-8 ovarian
[17] = system: M14 melanoma
[18] = system: UACC-257 melanoma
[19] = system: A549 NSCLC
[20] = system: MALME-3M melanoma
[21] = system: CCRF-CEM leukemia
[22] = system: LOX IMVI melanoma
[23] = system: MDA-MB-231 breast
[24] = system: T-47D breast
[25] = system: SN12C renal
[26] = system: OVCAR-4 ovarian
[27] = system: HOP-92 NSCLC
[28] = system: ACHN renal
[29] = system: OVCAR-5 ovarian
[30] = system: MDA-MB-435
[31] = system: NCI/ADR-RES ovarian
[32] = system: OVCAR-3 ovarian
[33] = system: SK-MEL-2 melanoma
[34] = system: RPMI-8226 leukemia
[35] = system: HOP-62 NSCLC
[36] = system: MCF7 breast
[37] = system: RXF 393 renal
[38] = system: NCI-H460 lung
[39] = system: CAKI-1 renal
[40] = system: UO-31 renal
[41] = system: NCI-H522 lung
[42] = system: HCT-15 colon
[43] = system: SF-295 CNS
[44] = system: HCT-116 colon
[45] = system: SK-OV-3 ovarian
[46] = system: SF-268 CNS
[47] = system: SR leukemia
[48] = system: HT29 colon
[49] = system: NCI-H23 lung
[50] = system: COLO 205 colon
[51] = system: EKVX NSCLC
[52] = system: UACC-62 melanoma
[53] = system: NCI-H226 lung
[54] = system: MDA-N
[55] = system: MOLT-4 leukemia
[56] = system: HS 578T breast
[57] = system: HL-60(TB) leukemia
[58] = system: TK-10 renal
[59] = system: A498 renal

In the case of COc1cc(C[C@H]2C(=O)OC[C@@H]2Cc2ccc(OC)c(OC)c2)cc(OC)c1, the TGI [1] is reported as > 100 µM, the TGI [2] is reported as > 100 µM and the TGI [3] is reported as > 100 µM. For the same compound, the TGI [4] was > 100 µM, the TGI [5] was > 100 µM and the TGI [6] was > 100 µM. For the same compound, the TGI [7] was > 100 µM, the TGI [8] was > 100 µM and the TGI [9] was > 100 µM. The TGI [10] was > 100 µM, the TGI [11] was > 100 µM and the TGI [12] was 54.5 µM. For the same compound, the TGI [13] was > 100 µM, the TGI [14] was > 100 µM and the TGI [15] was > 100 µM. The TGI [16] was > 100 µM, the TGI [17] was > 100 µM and the TGI [18] was > 100 µM. For the same compound, the TGI [19] was > 100 µM, the TGI [20] was > 100 µM and the TGI [21] was > 100 µM. The TGI [22] was 49.5 µM, the TGI [23] was > 100 µM and the TGI [24] was > 100 µM. The TGI [25] was > 100 µM, the TGI [26] was > 100 µM and the TGI [27] was > 100 µM. For the same compound, the TGI [28] was > 100 µM, the TGI [29] was > 100 µM and the TGI [30] was > 100 µM. For the same compound, the TGI [31] was > 100 µM, the TGI [32] was > 100 µM and the TGI [33] was > 100 µM. For the same compound, the TGI [34] was > 100 µM, the TGI [35] was > 100 µM and the TGI [36] was > 100 µM. For the same compound, the TGI [37] was > 100 µM, the TGI [38] was > 100 µM and the TGI [39] was > 100 µM. The TGI [40] was > 100 µM, the TGI [41] was > 100 µM and the TGI [42] was > 100 µM. For the same compound, the TGI [43] was > 100 µM, the TGI [44] was > 100 µM and the TGI [45] was > 100 µM. For the same compound, the TGI [46] was > 100 µM, the TGI [47] was > 100 µM and the TGI [48] was > 100 µM. For the same compound, the TGI [49] was > 100 µM, the TGI [50] was > 100 µM and the TGI [51] was > 100 µM. For the same compound, the TGI [52] was > 100 µM, the TGI [53] was > 100 µM and the TGI [54] was > 100 µM. The TGI [55] was > 100 µM, the TGI [56] was > 100 µM and the TGI [57] was 77.1 µM. For the same compound, the TGI [58] was > 100 µM.
For COc1ccc(Cc2c(N)[nH]c(=O)n(C)c2=O)cc1, the TGI [1] was > 100 µM, the TGI [2] was > 100 µM and the TGI [3] was > 100 µM. The TGI [4] was > 100 µM, the TGI [5] was > 100 µM and the TGI [7] was > 100 µM. The TGI [8] was > 100 µM, the TGI [9] was > 100 µM and the TGI [10] was > 100 µM. The TGI [11] was > 100 µM, the TGI [12] was > 100 µM and the TGI [13] was > 100 µM. For the same compound, the TGI [14] was > 100 µM, the TGI [15] was > 100 µM and the TGI [16] was > 100 µM. For the same compound, the TGI [17] was > 100 µM, the TGI [18] was > 100 µM and the TGI [19] was > 100 µM. For the same compound, the TGI [20] was > 100 µM, the TGI [22] was > 100 µM and the TGI [23] was > 100 µM. The TGI [24] was > 100 µM, the TGI [25] was > 100 µM and the TGI [26] was > 100 µM. For the same compound, the TGI [27] was > 100 µM, the TGI [28] was > 100 µM and the TGI [29] was > 100 µM. The TGI [30] was > 100 µM, the TGI [31] was > 100 µM and the TGI [32] was > 100 µM. For the same compound, the TGI [33] was > 100 µM, the TGI [34] was > 100 µM and the TGI [35] was > 100 µM. For the same compound, the TGI [36] was 22.2 µM, the TGI [37] was > 100 µM and the TGI [38] was > 100 µM. For the same compound, the TGI [39] was > 100 µM, the TGI [40] was > 100 µM and the TGI [41] was > 100 µM. For the same compound, the TGI [42] was > 100 µM, the TGI [43] was > 100 µM and the TGI [44] was > 100 µM. The TGI [45] was > 100 µM, the TGI [46] was > 100 µM and the TGI [48] was > 100 µM. For the same compound, the TGI [49] was > 100 µM, the TGI [50] was > 100 µM and the TGI [51] was > 100 µM. The TGI [59] was > 100 µM, the TGI [52] was > 100 µM and the TGI [53] was > 100 µM. For the same compound, the TGI [54] was > 100 µM, the TGI [56] was > 100 µM and the TGI [58] was > 100 µM.
